According to patent US20090098072A1, “ANTIOXIDANTS” (priority 2006, published 2009):

Assay: Photoconversion test (absorption at 300 nm after solar simulator irradiation)
Format: physicochemical
Description: A 4% solution of the substance in isopropyl myristate is prepared. In each case, 40 μl of the solution are applied to the roughened surface of 2 acrylic glass plates (7.2×2.5 cm). One plate is subsequently irradiated in a solar simulator (Atlas CPS+) for 1 h 50 min with cooling. The sample is subsequently transferred into a 50 ml measuring cylinder and covered with 40 ml of isopropanol for extraction in the ultrasound bath. The sample volume is subsequently made up to precisely 50 ml, and the absorption is measured at 300 nm. An unirradiated batch treated analogously serves as comparison. The absorption can be increased by 22% from 0.094 (dark batch) to 0.115 by the irradiation step.

## Cc1ccc(CC2C(=O)C3(C)CCC2C3(C)C)cc1 (stereo not drawn) [Example 1, 1,7,7-trimethyl-3-(4-methylbenzyl)-bicyclo-[2.2.1]heptan-2-one]
4% solution in isopropyl myristate, 40 μl on acrylic glass plate, extracted with isopropanol to 50 ml, not irradiated
  absorption at 300 nm, unirradiated (dark batch): 0.094
4% solution in isopropyl myristate, 40 μl on acrylic glass plate, solar simulator (Atlas CPS+) 1 h 50 min, extracted with isopropanol to 50 ml
  absorption at 300 nm after irradiation: 0.115
Irradiated 1 h 50 min vs dark batch
  increase of absorption at 300 nm by the irradiation step: 22%
